Tested on: Transport facilitation protein genes
Experiment: DNA chip mRNA expression in yeast, transport facilitation protein genes (Table 5)
Format: cell-based, Saccharomyces cerevisiae S288C
Description: Yeast (Saccharomyces cerevisiae S288C (α SUC2mal mel gap2 CUP1)) were incubated at 25° C. on YPD medium (yeast extract 1%, polypepton 2%, glucose 2%). One of toxic chemical substances was added to the cells at logarithmic growth phase, and the cells were further incubated for two hours. Cells were cultured without any chemical substance in the same condition, and were used as control. Concentrations of the chemical substances were defined to inhibit the growth of the yeast but not lead to death.
After completion of the incubation, the culture was centrifuged to collect the cells. To the cells, sodium acetate buffer (50 mM sodium acetate, 10 mM EDTA, 1% SDS) was added, and the mixture was shaken at 65° C. for five minutes, followed by returning to room temperature, and obtaining the supernatant, of which the procedures were repeated two times. To the supernatant, ½ amount of a solution of phenol/chloroform was added, and the mixture was centrifuged to give a supernatant, which was added with an equal amount of chloroform, and the mixture was centrifuged to give a supernatant. To the supernatant, an equal amount of isopropanol containing 0.3 M sodium acetate was added, and the mixture was allowed to stand at room temperature for 30 minutes, after which the mixture was centrifuged to give a sediment of the whole RNAs. Seventy % ethanol was added to the sediment, and the mixture was again centrifuged to give a sediment, which was then dried and dissolved in water. mRNA was isolated from the whole RNAs as followings. In view of the fact that a poly A chain is attached to the 3′ terminus of mRNA, a polynucleotide having a poly T structure which was immobilized on the surface of latex beads was used to trap the mRNA, and then the mRNA was washed and eluted with spine column (Oligotex-dT30<Super>mRNA Purification Kit, Takara). Reverse transcription of the mRNA was conducted with a reverse transcriptase (Super Script II Reverse Transcriptase; catalogue No. 18064-014, GibcoBRL) using fluorescence-labeled nucleotides to give cDNAs that were introduced with Cy3-dUTP or Cy5-dUTP during the reverse transcription.
The labeled cDNAs were dissolved in TE buffer (10mM Tris-HCl/1 mM EDTA, pH8.0), and the solution was dropped on the DNA chip containing the whole genes of yeast (DNA Chip Research Inc. Japan) so that the cDNAs were hybridized on the DNA chip at 65° C. for over 12 hours. The fluoresces intensity of the DNA chip was read with a scanner, and the ratio relative to the fluorescence intensity resulting from the absence of chemical substance was estimated as the following, which is shown in Tables 1 to 9: […]

[Cl][Cd][Cl] [(2), CdCl2]
The level of expressed mRNA in the presence of chemical substance/The level of expressed mRNA in the absence of chemical substance (yeast gene YGR224W): 1.2 | The level of expressed mRNA in the presence of chemical substance/The level of expressed mRNA in the absence of chemical substance (yeast gene YGR260W): 0.7 | The level of expressed mRNA in the presence of chemical substance/The level of expressed mRNA in the absence of chemical substance (yeast gene YGR281W): 1.0 | The level of expressed mRNA in the presence of chemical substance/The level of expressed mRNA in the absence of chemical substance (yeast gene YHL035C): 1.3 | The level of expressed mRNA in the presence of chemical substance/The level of expressed mRNA in the absence of chemical substance (yeast gene YHL040C): 4.9 | The level of expressed mRNA in the presence of chemical substance/The level of expressed mRNA in the absence of chemical substance (yeast gene YHL047C): 4.4 | The level of expressed mRNA in the presence of chemical substance/The level of expressed mRNA in the absence of chemical substance (yeast gene YHR026W): 1.0 | The level of expressed mRNA in the presence of chemical substance/The level of expressed mRNA in the absence of chemical substance (yeast gene YHR092C): 1.0 | The level of expressed mRNA in the presence of chemical substance/The level of expressed mRNA in the absence of chemical substance (yeast gene YHR094C): 1.2 | The level of expressed mRNA in the presence of chemical substance/The level of expressed mRNA in the absence of chemical substance (yeast gene YHR175W): 2.0 | The level of expressed mRNA in the presence of chemical substance/The level of expressed mRNA in the absence of chemical substance (yeast gene YIL006W): 1.1 | The level of expressed mRNA in the presence of chemical substance/The level of expressed mRNA in the absence of chemical substance (yeast gene YIL022W): 0.7 | The level of expressed mRNA in the presence of chemical substance/The level of expressed mRNA in the absence of chemical substance (yeast gene YIL056W): 0.9 | The level of expressed mRNA in the presence of chemical substance/The level of expressed mRNA in the absence of chemical substance (yeast gene YIL088C): 2.1 | The level of expressed mRNA in the presence of chemical substance/The level of expressed mRNA in the absence of chemical substance (yeast gene YJL034W): 1.7 | The level of expressed mRNA in the presence of chemical substance/The level of expressed mRNA in the absence of chemical substance (yeast gene YJL212C): 3.2 | The level of expressed mRNA in the presence of chemical substance/The level of expressed mRNA in the absence of chemical substance (yeast gene YJL219W): 2.5 | The level of expressed mRNA in the presence of chemical substance/The level of expressed mRNA in the absence of chemical substance (yeast gene YJR077C): 1.1 | The level of expressed mRNA in the presence of chemical substance/The level of expressed mRNA in the absence of chemical substance (yeast gene YJR106W): 3.8 | The level of expressed mRNA in the presence of chemical substance/The level of expressed mRNA in the absence of chemical substance (yeast gene YJR121W): 1.1 | The level of expressed mRNA in the presence of chemical substance/The level of expressed mRNA in the absence of chemical substance (yeast gene YKL016C): 1.3 | The level of expressed mRNA in the presence of chemical substance/The level of expressed mRNA in the absence of chemical substance (yeast gene YKL146W): 1.3 | The level of expressed mRNA in the presence of chemical substance/The level of expressed mRNA in the absence of chemical substance (yeast gene YKR039W): 3.5 | The level of expressed mRNA in the presence of chemical substance/The level of expressed mRNA in the absence of chemical substance (yeast gene YKR067W): 2.6 | The level of expressed mRNA in the presence of chemical substance/The level of expressed mRNA in the absence of chemical substance (yeast gene YLL028W): 0.9 | The level of expressed mRNA in the presence of chemical substance/The level of expressed mRNA in the absence of chemical substance (yeast gene YLR081W): 0.8 | The level of expressed mRNA in the presence of chemical substance/The level of expressed mRNA in the absence of chemical substance (yeast gene YLR295C): 1.1 | The level of expressed mRNA in the presence of chemical substance/The level of expressed mRNA in the absence of chemical substance (yeast gene YLR348C): 4.5 | The level of expressed mRNA in the presence of chemical substance/The level of expressed mRNA in the absence of chemical substance (yeast gene YLR378C): 0.9 | The level of expressed mRNA in the presence of chemical substance/The level of expressed mRNA in the absence of chemical substance (yeast gene YMR011W): 1.0 | The level of expressed mRNA in the presence of chemical substance/The level of expressed mRNA in the absence of chemical substance (yeast gene YMR162C): 1.1 | The level of expressed mRNA in the presence of chemical substance/The level of expressed mRNA in the absence of chemical substance (yeast gene YMR203W): 0.7 | The level of expressed mRNA in the presence of chemical substance/The level of expressed mRNA in the absence of chemical substance (yeast gene YNL055C): 1.8 | The level of expressed mRNA in the presence of chemical substance/The level of expressed mRNA in the absence of chemical substance (yeast gene YNR072W): 1.5 | The level of expressed mRNA in the presence of chemical substance/The level of expressed mRNA in the absence of chemical substance (yeast gene YOL119C): 4.8 | The level of expressed mRNA in the presence of chemical substance/The level of expressed mRNA in the absence of chemical substance (yeast gene YOL156W): 0.7 | The level of expressed mRNA in the presence of chemical substance/The level of expressed mRNA in the absence of chemical substance (yeast gene YOL163W): 3.2 | The level of expressed mRNA in the presence of chemical substance/The level of expressed mRNA in the absence of chemical substance (yeast gene YOR035C): 1.2 | The level of expressed mRNA in the presence of chemical substance/The level of expressed mRNA in the absence of chemical substance (yeast gene YOR130C): 1.7 | The level of expressed mRNA in the presence of chemical substance/The level of expressed mRNA in the absence of chemical substance (yeast gene YOR153W): 0.9 | The level of expressed mRNA in the presence of chemical substance/The level of expressed mRNA in the absence of chemical substance (yeast gene YOR273C): 1.0 | The level of expressed mRNA in the presence of chemical substance/The level of expressed mRNA in the absence of chemical substance (yeast gene YOR316C): 2.5 | The level of expressed mRNA in the presence of chemical substance/The level of expressed mRNA in the absence of chemical substance (yeast gene YOR328W): 1.0 | The level of expressed mRNA in the presence of chemical substance/The level of expressed mRNA in the absence of chemical substance (yeast gene YOR332W): 1.0 | The level of expressed mRNA in the presence of chemical substance/The level of expressed mRNA in the absence of chemical substance (yeast gene YOR348C): 0.7 | The level of expressed mRNA in the presence of chemical substance/The level of expressed mRNA in the absence of chemical substance (yeast gene YPL036W): 0.8 | The level of expressed mRNA in the presence of chemical substance/The level of expressed mRNA in the absence of chemical substance (yeast gene YPL134C): 1.0 | The level of expressed mRNA in the presence of chemical substance/The level of expressed mRNA in the absence of chemical substance (yeast gene YPL271W): 3.2 | The level of expressed mRNA in the presence of chemical substance/The level of expressed mRNA in the absence of chemical substance (yeast gene YPR192W): 1.1 | The level of expressed mRNA in the presence of chemical substance/The level of expressed mRNA in the absence of chemical substance (yeast gene YPR194C): 1.4

From US8192962B2, “Processes for detecting toxic substances” (Daikin Industries, Ltd., priority 2001, dated 2012)
